In ChEMBL document CHEMBL1201862, “PubChem BioAssay data set” (2004):
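1) Cells in 96-well plates. 2) Compound, 48 h, 5 concentrations. 3) Linear interpolation between surrounding doses. 4) Unreached endpoint = highest concentration. The concentration for 50% growth inhibition is given as GI50.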 Calls of active or inactive are those of the source. No stated cut-off is given here; in the data, active = GI50 up to about 1.1 µM and inactive = higher. Square brackets hold non-standard residues; d marks the D form. Peptide text beside a SMILES is read from it. Phe(4-Cl) = N[CH](Cc1ccc(Cl)cc1)C(=O)O; 2Nal = N[CH](Cc1ccc2ccccc2c1)C(=O)O; 3Pal = N[CH](Cc1cccnc1)C(=O)O

Tests used:
Experiment in all cases: NCI tumour cell line growth inhibition, 48 h
MOLT-4 = tested on: MOLT-4
M14 = tested on: M14
TK-10 = tested on: TK-10
NCI-H522 = tested on: NCI-H522
MDA-MB-435 = tested on: MDA-MB-435
COLO 205 = tested on: COLO 205
NCI/ADR-RES = tested on: NCI/ADR-RES
IGROV-1 = tested on: IGROV-1
OVCAR-4 = tested on: OVCAR-4
MDA-MB-231 = tested on: MDA-MB-231
UO-31 = tested on: UO-31
Hs-578T = tested on: Hs-578T
NCI-H23 = tested on: NCI-H23
OVCAR-5 = tested on: OVCAR-5
CCRF-CEM = tested on: CCRF-CEM
BT-549 = tested on: BT-549
HOP-92 = tested on: HOP-92
HT-29 = tested on: HT-29
T47D = tested on: T47D
SR = tested on: SR

Row | Structure (SMILES) | GI50 (MOLT-4) | GI50 (M14) | GI50 (TK-10) | GI50 (NCI-H522) | GI50 (MDA-MB-435) | GI50 (COLO 205) | GI50 (NCI/ADR-RES) | GI50 (IGROV-1) | GI50 (OVCAR-4) | GI50 (MDA-MB-231) | GI50 (UO-31) | GI50 (Hs-578T) | GI50 (NCI-H23) | GI50 (OVCAR-5) | GI50 (CCRF-CEM) | GI50 (BT-549) | GI50 (HOP-92) | GI50 (HT-29) | GI50 (T47D) | GI50 (SR)
1 | Cc1cc(C)nc(SCC(=O)OC2CC(C)CCC2C(C)C)n1 (stereo not drawn) | 16.7 µM (inactive) | 16.7 µM (inactive) | 34.3 µM (inactive) | 18.8 µM (inactive) | 23.6 µM (inactive) | 16.7 µM (inactive) | 17 µM (inactive) | 20.6 µM (inactive) | 20.9 µM (inactive) | 17.9 µM (inactive) | 18.7 µM (inactive) | 33.4 µM (inactive) | 24.8 µM (inactive) | 22.3 µM (inactive) | 16.6 µM (inactive) | 45.9 µM (inactive) | 26 µM (inactive) | 16.4 µM (inactive) | 14.8 µM (inactive) | –
2 | COC(=O)C1SC(SC)=NC12c1ccccc1Nc1ccccc12 (stereo not drawn) | 22.1 µM (inactive) | 18.5 µM (inactive) | 50 µM (inactive) | 19.5 µM (inactive) | 27 µM (inactive) | 20.5 µM (inactive) | 39.9 µM (inactive) | 30.3 µM (inactive) | 32.7 µM (inactive) | – | 69.2 µM (inactive) | 31.7 µM (inactive) | 19.8 µM (inactive) | 54.8 µM (inactive) | 31.8 µM (inactive) | 24.7 µM (inactive) | 20.8 µM (inactive) | 30.8 µM (inactive) | 32.2 µM (inactive) | 17.5 µM (inactive)
3 | N#Cc1ccc(/C=C2\Cc3ccccc3C2=O)cc1 | > 100 µM (inactive) | > 100 µM (inactive) | > 100 µM (inactive) | 14.3 µM (inactive) | > 100 µM (inactive) | > 100 µM (inactive) | – | – | > 100 µM (inactive) | > 100 µM (inactive) | 43.4 µM (inactive) | 51.2 µM (inactive) | > 100 µM (inactive) | – | > 100 µM (inactive) | > 100 µM (inactive) | – | > 100 µM (inactive) | 36.3 µM (inactive) | > 100 µM (inactive)
4 | CCCCCC(/C=C/[C@@H]1[C@@H](C(O)CCCCCC(=O)OC)C(=O)C[C@H]1O[Si](C)(C)C(C)(C)C)OCOCCOC (stereo partly drawn) | 1.73 µM (inactive) | 13.8 µM (inactive) | 16.6 µM (inactive) | 3.92 µM (inactive) | 8 µM (inactive) | 18.9 µM (inactive) | 18.9 µM (inactive) | 6.28 µM (inactive) | 18.5 µM (inactive) | 21.7 µM (inactive) | 15.6 µM (inactive) | 9.84 µM (inactive) | 15 µM (inactive) | 21.1 µM (inactive) | 2.62 µM (inactive) | 9.06 µM (inactive) | 21 µM (inactive) | 6.7 µM (inactive) | 21.4 µM (inactive) | –
5 | COc1cc(CN2CCCCC2)cc2cc(C(=O)O)c(=O)oc12 | > 100 µM (inactive) | > 100 µM (inactive) | > 100 µM (inactive) | > 100 µM (inactive) | > 100 µM (inactive) | > 100 µM (inactive) | > 100 µM (inactive) | > 100 µM (inactive) | > 100 µM (inactive) | > 100 µM (inactive) | > 100 µM (inactive) | > 100 µM (inactive) | > 100 µM (inactive) | > 100 µM (inactive) | > 100 µM (inactive) | > 100 µM (inactive) | > 100 µM (inactive) | > 100 µM (inactive) | > 70.1 µM (inactive) | –
6 | CC1=NN(c2nc(N)nc(NS(=O)(=O)c3cc(C)c(Cl)cc3S)n2)C(C)(C)C1 | > 10 µM (inactive) | > 10 µM (inactive) | > 10 µM (inactive) | > 10 µM (inactive) | – | > 10 µM (inactive) | > 10 µM (inactive) | > 10 µM (inactive) | > 10 µM (inactive) | – | > 10 µM (inactive) | > 10 µM (inactive) | > 10 µM (inactive) | > 10 µM (inactive) | > 10 µM (inactive) | > 10 µM (inactive) | > 10 µM (inactive) | > 10 µM (inactive) | > 10 µM (inactive) | > 10 µM (inactive)
7 | CC1=NN(c2nc(N)nc(C(C)Cl)n2)C(C)(C)C1 (stereo not drawn) | > 100 µM (inactive) | > 100 µM (inactive) | > 100 µM (inactive) | – | > 100 µM (inactive) | > 100 µM (inactive) | > 100 µM (inactive) | > 100 µM (inactive) | > 100 µM (inactive) | > 100 µM (inactive) | > 100 µM (inactive) | > 100 µM (inactive) | > 100 µM (inactive) | – | > 100 µM (inactive) | > 100 µM (inactive) | > 100 µM (inactive) | > 100 µM (inactive) | > 100 µM (inactive) | > 100 µM (inactive)
8 | CC(=O)NC(Cc1ccc2ccccc2c1)C(=O)NC(Cc1ccc(Cl)cc1)C(=O)NC(Cc1cccnc1)C(=O)NC(CO)C(=O)NC(Cc1ccc(O)cc1)C(=O)NC(CCCN=C(N)N)C(=O)NC(CC(C)C)C(=O)NC(CCCN=C(N)N)C(=O)N1CCCC1C(=O)NC(C)C(N)=O (stereo not drawn) (Ac-[2Nal][Phe(4-Cl)][3Pal]SYRLRPA-NH2; configuration not given here) | > 100 µM (inactive) | > 100 µM (inactive) | > 100 µM (inactive) | > 100 µM (inactive) | 82.8 µM (inactive) | > 100 µM (inactive) | > 100 µM (inactive) | > 100 µM (inactive) | > 100 µM (inactive) | > 100 µM (inactive) | > 100 µM (inactive) | 50.2 µM (inactive) | > 100 µM (inactive) | > 100 µM (inactive) | > 100 µM (inactive) | > 100 µM (inactive) | > 100 µM (inactive) | > 100 µM (inactive) | – | > 100 µM (inactive)
9 | COC(=O)C(CC12CC3CC(CC(C3)C1)C2)NC(=O)C(N)CC(=O)O (stereo not drawn) | > 100 µM (inactive) | – | > 100 µM (inactive) | > 100 µM (inactive) | > 100 µM (inactive) | > 100 µM (inactive) | > 100 µM (inactive) | > 100 µM (inactive) | > 100 µM (inactive) | – | > 100 µM (inactive) | > 100 µM (inactive) | > 100 µM (inactive) | > 100 µM (inactive) | > 100 µM (inactive) | > 100 µM (inactive) | > 100 µM (inactive) | > 100 µM (inactive) | > 100 µM (inactive) | > 100 µM (inactive)
10 | Cc1cc(O)c(C(C)C)cc1CN1CCCCC1 | > 100 µM (inactive) | > 100 µM (inactive) | > 100 µM (inactive) | > 100 µM (inactive) | > 100 µM (inactive) | > 100 µM (inactive) | > 100 µM (inactive) | > 100 µM (inactive) | > 100 µM (inactive) | > 100 µM (inactive) | > 100 µM (inactive) | > 100 µM (inactive) | > 100 µM (inactive) | > 100 µM (inactive) | > 100 µM (inactive) | > 100 µM (inactive) | > 100 µM (inactive) | > 100 µM (inactive) | > 100 µM (inactive) | –
11 | O=C1CC(Cl)c2c(Cl)sc(Cl)c21 (stereo not drawn) | 1.23 µM (inactive) | 1.88 µM (inactive) | 2.36 µM (inactive) | 1.21 µM (inactive) | 2.36 µM (inactive) | 2.02 µM (inactive) | 3.35 µM (inactive) | 1.99 µM (inactive) | 4.57 µM (inactive) | – | 1.99 µM (inactive) | 7.38 µM (inactive) | 2.88 µM (inactive) | 16.2 µM (inactive) | 0.255 µM (active) | 4.06 µM (inactive) | 1.74 µM (inactive) | 2.23 µM (inactive) | 2.92 µM (inactive) | 1.41 µM (inactive)
12 | CC1OC(NCCNCCNC2OC(C)C(O)C(O)C2O)C(O)C(O)C1O (stereo not drawn) | > 100 µM (inactive) | > 100 µM (inactive) | > 100 µM (inactive) | > 100 µM (inactive) | – | > 100 µM (inactive) | > 100 µM (inactive) | > 100 µM (inactive) | > 100 µM (inactive) | > 100 µM (inactive) | > 100 µM (inactive) | > 100 µM (inactive) | > 100 µM (inactive) | > 100 µM (inactive) | – | > 100 µM (inactive) | > 100 µM (inactive) | > 100 µM (inactive) | > 100 µM (inactive) | > 100 µM (inactive)
13 | COc1nc(N)c(C#N)c(C#N)c1C#N | > 10 µM (inactive) | > 10 µM (inactive) | > 10 µM (inactive) | > 10 µM (inactive) | > 10 µM (inactive) | > 10 µM (inactive) | > 10 µM (inactive) | – | > 10 µM (inactive) | > 10 µM (inactive) | – | > 10 µM (inactive) | > 10 µM (inactive) | > 10 µM (inactive) | – | > 10 µM (inactive) | > 10 µM (inactive) | > 10 µM (inactive) | – | > 10 µM (inactive)
14 | O=[N+]([O-])c1ccc2c(c1)C(N1CCN(CCO)CC1)Cc1ccc(F)cc1S2 (stereo not drawn) | 1.04 µM (active) | 3.15 µM (inactive) | 13.7 µM (inactive) | 3.48 µM (inactive) | – | 5.48 µM (inactive) | 10.3 µM (inactive) | 3.85 µM (inactive) | 12.4 µM (inactive) | 12.9 µM (inactive) | 4.39 µM (inactive) | 6.75 µM (inactive) | 13.5 µM (inactive) | 13.4 µM (inactive) | 3.18 µM (inactive) | 10.8 µM (inactive) | – | 2.49 µM (inactive) | 17.4 µM (inactive) | 4.04 µM (inactive)
15 | Cc1ccc(C2(O)CS/C(=N\C34CC5CC(CC(C5)C3)C4)N2C(P(=O)(O)O)P(=O)(O)O)cc1 (stereo not drawn) | 37.9 µM (inactive) | > 100 µM (inactive) | > 100 µM (inactive) | – | > 100 µM (inactive) | > 100 µM (inactive) | 24.2 µM (inactive) | > 100 µM (inactive) | > 100 µM (inactive) | 56.6 µM (inactive) | > 100 µM (inactive) | 73.1 µM (inactive) | > 100 µM (inactive) | 82.8 µM (inactive) | – | > 100 µM (inactive) | > 100 µM (inactive) | > 100 µM (inactive) | 80.2 µM (inactive) | 29.2 µM (inactive)
